Among the test systems are NCI-H23; OVCAR-8; SR; T47D; HOP-62; MDA-MB-435; NCI/ADR-RES; HCT-116; IGROV-1; SF-268; HCC 2998; HL-60; HCT-15; OVCAR-4; M14; SK-MEL-5; U-251; ACHN; MDA-MB-231; SNB-75.
Assay in all cases: NCI tumour cell line growth inhibition, 48 h

Each structure is given as a SMILES string.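 Method: 48-hour compound exposure of cells in 96-well plates, five concentrations, linear interpolation of endpoints. Abbreviation: GI50, concentration required for 50% inhibition of growth.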 Active and inactive are the calls of the source. Rule as the data show it: active = GI50 up to about 1.1 µM and inactive = higher.

`CCNc1ncnc2sc(SCc3ccccc3)nc12`: the GI50 is 83.8 µM (inactive) with NCI-H23; 80.9 µM (inactive) in the experiment on OVCAR-8; 33.8 µM (inactive) in the experiment on SR; 75.5 µM (inactive) with T47D; > 100 µM (inactive) in the experiment on HOP-62; > 100 µM (inactive) in the experiment on MDA-MB-435. The GI50 was 34.8 µM (inactive) with NCI/ADR-RES; 85.9 µM (inactive) with HCT-116; > 100 µM (inactive) in the experiment with IGROV-1; > 100 µM (inactive) in the experiment on SF-268; 81.1 µM (inactive) in the experiment with HCC 2998; 16.6 µM (inactive) in the experiment on HL-60. The GI50 with HCT-15 is > 100 µM; with OVCAR-4, > 100 µM (inactive); in the experiment with M14 it was > 100 µM (inactive); in the experiment with SK-MEL-5, 25.6 µM (inactive); with U-251, > 100 µM (inactive); in the experiment with ACHN, 70.6 µM (inactive). In addition, the GI50 in the experiment with MDA-MB-231 and in the experiment on SNB-75 was > 100 µM (inactive) in each case.
`Nc1ccc(C(=O)N/C(=C\c2cccc([N+](=O)[O-])c2)c2nc3c(O)nc(S)nc3[nH]2)cc1`: the GI50 in the experiment with NCI-H23 was > 100 µM (inactive); in the experiment with OVCAR-8, 31 µM (inactive); with SR it was > 100 µM (inactive); with T47D, 44.2 µM (inactive); in the experiment with HOP-62, 17.2 µM (inactive); in the experiment on MDA-MB-435, > 100 µM (inactive). Moreover, the GI50 in the experiment with NCI/ADR-RES is > 100 µM (inactive); in the experiment on HCT-116 it was 81.3 µM (inactive); in the experiment with IGROV-1 it was 55.1 µM (inactive); in the experiment with SF-268 it was 25.9 µM (inactive); in the experiment with HCC 2998 it was > 100 µM (inactive); in the experiment on HL-60 it was > 100 µM (inactive). Also, the GI50 in the experiment on HCT-15 is > 100 µM; with OVCAR-4, > 100 µM (inactive); with M14, > 100 µM (inactive); in the experiment with SK-MEL-5, > 100 µM (inactive); in the experiment with U-251, 42.7 µM (inactive); in the experiment on ACHN, > 76.2 µM (inactive). Also, the GI50 with MDA-MB-231 is > 53 µM (inactive); in the experiment with SNB-75, 6.61 µM (inactive).
On to `Cc1cc(S(=O)(=O)NC2=Nc3ccccc3C(c3ccccc3)N2)c(S)cc1Cl` (stereo not given), for which the GI50 in the experiment on NCI-H23 is > 100 µM (inactive); in the experiment with OVCAR-8, > 100 µM (inactive); in the experiment with SR, 23.3 µM (inactive); with T47D, 6.56 µM (inactive); with HOP-62 it was > 100 µM (inactive); in the experiment on MDA-MB-435 it was 31.7 µM (inactive). Further, the GI50 was > 100 µM (inactive) with NCI/ADR-RES; 7.13 µM (inactive) in the experiment with HCT-116; > 100 µM (inactive) in the experiment with IGROV-1; 39 µM (inactive) with SF-268; > 100 µM (inactive) in the experiment on HCC 2998; > 100 µM (inactive) with HL-60. Further, the GI50 with HCT-15 was 59.3 µM; in the experiment on OVCAR-4 it was 13.6 µM (inactive); with M14 it was > 100 µM (inactive); in the experiment with SK-MEL-5, > 100 µM (inactive); in the experiment on U-251, 37.7 µM (inactive); in the experiment with ACHN it was > 100 µM (inactive). Further, the results for the GI50 in the experiment with MDA-MB-231 and in the experiment on SNB-75 were 95.3 µM (inactive) and > 100 µM (inactive), respectively.
`CC1=C2C(=CO[C@H](C)[C@H]2C)C(O)=C(C(=O)O)C1=O` [CITRININ]: the GI50 is 20.5 µM (inactive) with NCI-H23; 13.2 µM (inactive) with OVCAR-8; 15.6 µM (inactive) with SR; 29.2 µM (inactive) in the experiment with T47D; 17.1 µM (inactive) with HOP-62; 27 µM (inactive) with MDA-MB-435. Also, the GI50 was 43.8 µM (inactive) with NCI/ADR-RES; 25.8 µM (inactive) in the experiment on HCT-116; 18.6 µM (inactive) with IGROV-1; 7 µM (inactive) in the experiment on SF-268; 19.1 µM (inactive) in the experiment with HCC 2998; 11.1 µM (inactive) with HL-60. Besides, the GI50 in the experiment with HCT-15 is 16.9 µM; in the experiment with OVCAR-4, 32.9 µM (inactive); in the experiment on M14 it was 23 µM (inactive); in the experiment with SK-MEL-5 it was 12.8 µM (inactive); in the experiment on U-251, 14.6 µM (inactive); with ACHN, 21 µM (inactive). Further, the GI50 in the experiment with MDA-MB-231 is 23.2 µM (inactive); in the experiment on SNB-75 it was 32.6 µM (inactive).
Consider `COc1cc2ccc(=O)oc2cc1O` [SCOPOLETIN], for which the GI50 in the experiment with NCI-H23 was 69 µM (inactive); with OVCAR-8, 52.1 µM (inactive); in the experiment on SR, > 100 µM (inactive); with T47D it was > 100 µM (inactive); in the experiment on HOP-62 it was 134 µM (inactive); in the experiment with MDA-MB-435, > 100 µM (inactive). Moreover, the GI50 with NCI/ADR-RES is 56.2 µM (inactive); in the experiment on HCT-116 it was 56.4 µM (inactive); in the experiment on IGROV-1, 69.3 µM (inactive); with SF-268 it was 92.3 µM (inactive); with HCC 2998, 98.4 µM (inactive); in the experiment on HL-60, 34.8 µM (inactive). The GI50 in the experiment on HCT-15 was 25.1 µM; in the experiment with OVCAR-4 it was 101 µM (inactive); in the experiment with M14 it was > 100 µM (inactive); in the experiment on SK-MEL-5 it was 78 µM (inactive); with U-251, 24.8 µM (inactive); with ACHN, > 100 µM (inactive). For the same compound, the GI50 with MDA-MB-231 is > 100 µM (inactive); with SNB-75 it was 50.8 µM (inactive).

The values above are taken from ChEMBL document CHEMBL1201862, “PubChem BioAssay data set” (2004).
